≈ marks a conversion by molar mass, not a printed value.

Data set [1] has as its system CMV. Nature of the data set: Intravitreal injection for a week, tolerability and antiviral effect. The note with it: 100 μg/kg every 48 hours intravitreally for a week. The data set is classed as in vivo. The text has this: Effective dosages may be administered also in sustained release dosage form.
Data set [2] relates to human CMV. Nature of the data set: Intravitreal human CMV infection in pigmented rabbits, intravitreal treatment. The arrangement: key to vitritis, maximum development: 1-2+: mild. The note with it: 80 μl (so in the source) of 2'-CdG. The format is in vivo.
Data set [3] concerns human CMV. Described as above. The arrangement: key to retinal pathology level: 1-2+: focal hemmorhages and development of localized retinal necrosis; key to Vitritis scores: 1-2+: mild; key to vitritis: 2+: mild vitritis. The data set is classed as in vivo. On the procedure:
Animal models for human CMV disease were prepared by inoculating human CMV by intravitreal injection into pigmented rabbits. The animals developed in 3-4 days post inoculation a mild to moderate vitritis, focal retinal microhemorrhages, and localized retinal necrosis.
Dosages of 2'-CdG of various amounts in 100 μl of sterile water were injected into rabbit models beginning on day 3 post inoculation and repeated on day 5 and day 7N.
Development and resolution of HCMV intraocular disease in the 80 μg therapy group was similar to disease development in the 100 μg therapy group as described below.
Seven pigmented rabbits were infected with human CMV by intravitreal injection. Beginning on day 3 PI, these animals received 3 successive injections of 100 μg 2'CdG in 50 μl on day 3, 4, and 5 PI. […] Vitritis scores in these animals were 1-2+ (mild) and retinal pathology was reduced to 1-2+ level (focal hemmorhages and development of localized retinal necrosis). […] Initial virus recovery assays indicate that human CMV titers were reduced to 0 or 1 log by day 2 post therapy.

A further data set has as its system MRC5 cells. Briefly: Drug cytotoxicity (gross morphology) in MRC5 cell monolayer cultures (Tables 4 and 5). The format is cell-based, human. How it is done:
(§1) The effectiveness of racemic 2'-CdG and of D-2'-CdG on CMV yields in MRC5 cell monolayer cultures was determined by a plaque assay with the results set forth in Tables 4 and 5:
(§2) ^a Drug treatment began immediately following the virus adsorption
(§3) ^a Drug treatment began immediately following the 1 1/2 hour

For data set [4], the system named is CMV. Briefly: CMV yields in MRC5 cell monolayer cultures by plaque assay (Tables 4 and 5). The data set is classed as cell-based. The note with it: for CMV Yield: virus control 1.1 × 10^5; for CMV Yield (log10): virus control 5.1. On the procedure: as §1, §2, §3
In data set [5] the test system is CMV. Nature of the data set: MIC50 against CMV in MRC5 cells. The format is cell-based.
Data set [6] deals with CMV. Nature of the data set: Reduction of CPE in CMV-infected MRC5 cell monolayer cultures (Tables 4 and 5). The format is cell-based. The note with it: Human betaherpesvirus 5, MRC5, read-out: Reduction (%) of CPE by D-2'-CDG at Time of Virus Harvest. How it is done:
as §1, §2, §3

Data set [7] relates to CMV. Briefly: ED50 antiviral efficacy against CMV in human foreskin fibroblast cells. The format is cell-based. To be noted: Human betaherpesvirus 5, read-out: ED50 (median dose at which 50% antiviral efficacy against CMV is produced). On the procedure:
The ED50 value (median dose at which 50% antiviral efficacy against CMV is produced) was 0.06 μg/mL for D-2'-CdG and 0.20 for DHPG in human foreskin fibroblast cells.

The subject of data set [8] is human CMV. Nature of the data set: Intravitreal human CMV infection in New Zealand white rabbits, intravitreal treatment. The data set is classed as in vivo. The note with it: 100 μg in 100 μl intravitreal, 48-hour intervals from day 4. An excerpt: The symptoms included vitritis, iritis, retinal pathology (micro hemorrhages and focal necrosis of the retinal
surface), corneal stromal haze and neovascularization, and corneal endothelial pigmented precipitates. […] The intravitreal route offers some significant advantages for intraocular infections including: 1) delivery of maximal concentrations of drug to the desired site of action; 2) increased potential for sustained release (i.e. longer half-life, T1/2) of the drug; and 3) reduced potential for systemic toxicity.

The subject of data set [9] is human cytomegalovirus (strain AD 169). Briefly: CMV yield in MRC5 cells (Table 1). The data set is classed as cell-based. The text has this: (§4) In each case, drug treatment began 0 hr. postinfection.
For data set [10] the test system is unchanged. Nature of the data set: Inhibition of human cytomegalovirus in MRC5 cells by plaque reduction assay (reduction of CPE, MIC50; Table 1). The data set is classed as cell-based. The note with it: Human betaherpesvirus 5, MRC5, treatment 0 hr postinfection, read-out: Reduction (%) of CPE at Time of Harvest.
Description: as §4

Another data set has as its system cytomegalovirus. The note with it: in vivo; cited from earlier work.
Data set [11] has as its system human diploid embryonic lung cells (MRC5). Nature of the data set: Drug cytotoxicity (gross morphology) in MRC5 cells (Table 1). The note with it: 320 μg/ml. The text has this: Also evaluated under the same conditions were prior art drugs Ara-A and ganciclovir (DHPG). In each case, drug treatment began 0 hr. postinfection.
The subject of a further data set is HCMV. Nature of the data set: Virus yield-reduction assay, combination with DHPG on HCMV replication in MRC5 cells (Table 2). The data set is classed as cell-based, human CMV. To be noted: (±)-2'-CDG 0. An excerpt: Effect of Combination Treatment^a With (±)-2'-CDG and
DHPG on HCMV Replication in MRC5 Cells
(Virus Yield-Reduction Assay)

[12] abbreviates: 40 μg per 100 μl injection, intravitreal.
Setting [13] is: 100 μg in 50 μl daily, day 3, 4 and 5 PI.

In the case of `Nc1nc2c(ncn2[C@@H]2C[C@H](CO)[C@@H](O)C2)c(=O)[nH]1` [2'-CdG], in the data set with CMV [1], the antiviral effectiveness entry is on record as “antivirally effective” and the tolerability result was “well tolerated”. Also, in the data set on human CMV [2] (intravitreal), the “development of vitritis and of retinal pathology” value was “effective in reducing the development of vitritis (1-2+ maximum development) and in altering the observed development of retinal pathology”; the “vitritis, maximum development” value is reported as 1-2+. In addition, the “Retinal blood vessel engorgement and focal microhemorrhages” value with human CMV [2] (days 3, 4 and 5 post inoculation) is “Retinal blood vessel engorgement was evident and focal microhemorrhages were present”. Moreover, in the data set on human CMV [3] (setting [12]), the “Retinal necrosis at sacrifice” value was “evident in all animals at sacrifice”, the retinal hemorrhages result is given as “focal retinal hemorrhages” and the vitritis is on record as 2+. The “controlling the development of disease” value with human CMV [3] (40 μg per 100 μl injection, intravitreal, from day 3 post inoculation) is “moderately effective in controlling the development of disease”. Moreover, in the data set with human CMV [3] (setting [13]), the Vitritis scores is reported as 1-2+; the “human CMV-induced vitritis and retinal pathology (preliminary)” value is “effective in reducing the development of human CMV-induced vitritis and retinal pathology”; the “progressive disease by day 7 post inoculation” value is “had not developed the progressive disease”; the retinal pathology level was 1-2+. Also, in the data set with human CMV [3] (2'CdG at two day intervals), the progressive disease result was “progressive disease that is observed”. Besides, the “moderate to severe retinal necrosis and detachment” value with human CMV [3] (lower concentration 2'CdG therapies) is given as “observed in the lower concentration 2'CdG therapies”.

In the case of `Nc1nc2c(ncn2[C@@H]2C[C@H](CO)[C@@H](O)C2)c(=O)[nH]1` [D-2'-CdG], the “Drug Cytotoxicity (gross morphology)” value in the data set with MRC5 cells (Table 5, 0.1 μM) is reported as 0; in the data set on MRC5 cells (Table 5, 0.32 μM), 0; in the data set with MRC5 cells (Table 5, 1.0 μM), 0; in the data set with MRC5 cells (Table 5, 3.2 μM) it was 0; in the data set with MRC5 cells (Table 5, 10 μM), 0; with MRC5 cells (Table 5, 32 μM), “v. sl. toxicity”. Moreover, the “Drug Cytotoxicity (gross morphology)” value with MRC5 cells (Table 5, 100 μM) is listed as “slight toxicity”; in the data set with MRC5 cells (Table 5, 320 μM) it was “toxic”. Also, the “CMV Yield” value is reported as 3.8 × 10^4 PFU/mL with CMV [4] (Table 5, 0.1 μM); 1.4 × 10^4 PFU/mL in the data set with CMV [4] (Table 5, 0.32 μM); 5.4 × 10^3 PFU/mL with CMV [4] (Table 5, 1.0 μM); 8.4 × 10^2 PFU/mL with CMV [4] (Table 5, 3.2 μM); 2 × 10^1 PFU/mL with CMV [4] (Table 5, 10 μM); 0 PFU/mL in the data set with CMV [4] (Table 5, 32 μM). The “CMV Yield” value with CMV [4] (Table 5, 100 μM) turned out to be 0 PFU/mL. Besides, the “CMV Yield (log10)” value in the data set with CMV [4] (Table 5, 0.1 μM) worked out at 4.6 log10 PFU/mL; in the data set with CMV [4] (Table 5, 0.32 μM) it was 4.1 log10 PFU/mL; with CMV [4] (Table 5, 1.0 μM) it was 3.7 log10 PFU/mL; in the data set on CMV [4] (Table 5, 3.2 μM) it was 2.9 log10 PFU/mL; in the data set on CMV [4] (Table 5, 10 μM), 1.3 log10 PFU/mL. Besides, the half-inhibitory concentration (IC50) with CMV [5] (Human betaherpesvirus 5) was under 0.029 µg/mL. Further, in the data set with CMV [5] (same conditions), the “MIC50 relative to the MIC50 of DL-2'-CdG” value is reported as “about half (or less)”. The inhibition at 0.1 µM with CMV [6] (Table 5, 0.1 μM) is 0%. For the same compound, in the data set on CMV [6] (Table 5, 0.32 μM), the inhibition at 0.32 µM came out at 0%. Besides, in the data set on CMV [6] (Table 5, 1.0 μM), the inhibition at 1 µM is 10%. In addition, the inhibition at 3.2 µM with CMV [6] (Table 5, 3.2 μM) stood at 10%. Also, the inhibition at 10 µM in the data set with CMV [6] (Table 5, 10 μM) amounted to 25%. Also, in the data set with CMV [6] (Table 5, 32 μM), the inhibition at 32 µM came to 50%. The inhibition at 100 µM with CMV [6] (Table 5, 100 μM) worked out at 50%. For the same compound, in the data set on CMV [7], the EC50 is 0.06 µg/mL (≈ 0.226 µM). The “clinical outcome compared with ganciclovir (DHPG)” value in the data set with human CMV [8] is “clinically better than treatment with ganciclovir (DHPG)”. Further, the “development of retinal pathology, severity of vitritis and iritis vs placebo” value with human CMV [8] is “effective in reducing the development of retinal pathology and in reducing the severity of the vitritis and iritis”.

Regarding `Nc1nc(O)c2ncn(COC(CO)CO)c2n1` [DHPG, dihydroxy propoxymethyl guanine, reference compound], the “CMV Yield” value in [9] (0.1 μg/ml, virus control 5.5 (DHPG 5.3)) was 4.7 log10 CCID50 /ml; in data set [9] (0.32 μg/ml, virus control 5.5 (DHPG 5.3)), 4.6 log10 CCID50 /ml; in data set [9] (1.0 μg/ml, virus control 5.5 (DHPG 5.3)) it was 3.6 log10 CCID50 /ml; in [9] (3.2 μg/ml, virus control 5.5 (DHPG 5.3)), 2.3 log10 CCID50 /ml; in [9] (10 μg/ml, virus control 5.5 (DHPG 5.3)), 1.0 log10 CCID50 /ml; in [9] (32 μg/ml, virus control 5.5 (DHPG 5.3)) it was 0 log10 CCID50 /ml. Besides, the “CMV Yield” value in data set [9] (100 μg/ml, virus control 5.5 (DHPG 5.3)) came to 0 log10 CCID50 /ml; in [9] (320 μg/ml, virus control 5.3), 0 log10 CCID50 /ml. In data set [10] (0.1 μg/ml), the inhibition at 0.1 µg/mL was found to be 0%. Further, in [10] (0.32 μg/ml), the inhibition at 0.32 µg/mL amounted to 5%. Also, the inhibition at 1 µg/mL in data set [10] (1.0 μg/ml) was 30%. In data set [10] (3.2 μg/ml), the inhibition at 3.2 µg/mL is 60%. In [10] (10 μg/ml), the inhibition at 10 µg/mL amounted to 95%. Besides, the inhibition at 32 µg/mL in data set [10] (32 μg/ml) was determined as 100%. Moreover, the inhibition at 100 µg/mL in [10] (100 μg/ml) was 100%. Besides, the inhibition at 320 µg/mL in [10] (320 μg/ml) amounted to 100%. The EC50 in the data set on CMV [7] turned out to be 0.2 µg/mL (≈ 0.784 µM). The toxicity entry with cytomegalovirus is on record as “dose-limiting toxicity”. The “Drug Cytotoxicity (gross morphology)” value in data set [11] is recorded as “sl. toxicity”. The “Reduction in CMV Yield” value in the data set with HCMV (DHPG 1.0 μM) was 0.5 Log10 PFU/ML; in the data set on HCMV (DHPG 3.2 μM), 1.3 Log10 PFU/ML; in the data set on HCMV (DHPG 10.0 μM) it was 1.8 Log10 PFU/ML.

The values are drawn from patent US6080746A, “Methods and compositions for the prophylaxis and treatment of cytomegalovirus infections” (priority 1991, dated 2000).
